Results taken from patent publication US9458187B2, “Methods for treatment of inflammatory conditions using S-[4-(3-fleuro-3-methylbutyryloxy)but-2-ynyl]6α, 9α-difluoro-17α-(furan-2-yl) carbonyloxy-11β-hydroxy-16α-methyl-3-oxoandrosta-1,4-diene-17β-carbothioate” (Sun Pharma Advanced Research Company Limited, priority 2013, dated 2016).

How the values were obtained:
[1] = tested on: ovalbumin-induced increase in intranasal pressure; experiment: Ovalbumin-induced increase in intranasal pressure; assay type: in vivo, guinea pigs; conditions: intranasal instillation 24 hr and 2 hr prior to ovalbumin challenge; FIG. 2
Experimental: Animals sensitized with ovalbumin as described above were used for experiments determining intranasal pressure. Intranasal instillation of compound of formula I, fluticasone propionate or placebo was done 24 hr and 2 hr prior to challenge with ovalbumin. The nasopharynx was catheterized with a PE cannula, one end of which was attached to pressure transducer and other to the nebulizer. Ovalbumin (5%) was nebulized into the nasal cavity for 10 min. The changes in intranasal pressure were recorded for following 45 min and differential pressure (dP) was calculated.

[2] = target: T1, Human Glucocorticoid receptor (Homo sapiens, UniProt P04150); experiment: Human glucocorticoid receptor binding (in vitro), [3H]dexamethasone radioligand
T1 construct: expressed in transfected cells; host or cells: human HeLa cells
T1 sequence (P04150 1-777): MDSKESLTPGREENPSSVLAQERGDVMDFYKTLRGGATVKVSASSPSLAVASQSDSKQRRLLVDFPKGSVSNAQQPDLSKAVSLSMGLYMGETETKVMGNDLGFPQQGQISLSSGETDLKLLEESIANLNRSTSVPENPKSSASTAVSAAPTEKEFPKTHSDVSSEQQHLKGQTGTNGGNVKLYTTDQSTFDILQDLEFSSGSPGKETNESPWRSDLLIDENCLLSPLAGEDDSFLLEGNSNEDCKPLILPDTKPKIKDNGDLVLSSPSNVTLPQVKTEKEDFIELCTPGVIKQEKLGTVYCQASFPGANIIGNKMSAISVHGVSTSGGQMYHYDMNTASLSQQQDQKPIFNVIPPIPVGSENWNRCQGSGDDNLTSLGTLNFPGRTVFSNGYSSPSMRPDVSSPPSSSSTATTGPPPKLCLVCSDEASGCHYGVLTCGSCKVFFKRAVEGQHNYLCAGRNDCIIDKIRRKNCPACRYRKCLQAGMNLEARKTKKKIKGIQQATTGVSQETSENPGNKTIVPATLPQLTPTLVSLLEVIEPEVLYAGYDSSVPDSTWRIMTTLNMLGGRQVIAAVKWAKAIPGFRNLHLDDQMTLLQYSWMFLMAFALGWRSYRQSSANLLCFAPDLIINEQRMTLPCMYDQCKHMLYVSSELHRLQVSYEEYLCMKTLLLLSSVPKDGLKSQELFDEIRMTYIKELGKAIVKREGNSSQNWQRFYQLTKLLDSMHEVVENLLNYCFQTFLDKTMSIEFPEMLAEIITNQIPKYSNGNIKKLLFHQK
Experimental: The activity of test compounds on glucocorticoid receptor was assessed using radioligand binding assays.
The % inhibition was evaluated using a single concentration of test compound and the corresponding radiolabeled ligand. Results are presented as the percent inhibition of specific binding. The values are average of duplicate determinations for each concentration.

[3] = tested on: Seasonal Allergic Rhinitis; experiment: Efficacy and safety by intranasal administration, Seasonal Allergic Rhinitis Environmental Exposure Chamber study; assay type: in vivo, human; conditions: patients, intranasal 100, 200 or 400 μg BID, 2 weeks, versus placebo
Experimental: The present study was conducted to determine the efficacy and safety of the compound of the present invention via intranasal route in Seasonal Allergic Rhinitis model. This was a single-centered, randomized, double-blind, placebo-controlled parallel group study.
OBJECTIVE: The objective of the study was to assess the efficacy and safety of the compound of the present invention via intranasal route compared to placebo in alleviating the signs and symptoms of Seasonal Allergic Rhinitis in Environmental Exposure Chamber Model (EEC) after 2 weeks of treatment.
METHODS: In this study, male and female patients aged 18-65 years with history of seasonal allergic rhinitis and positive skin prick test to Dactylis glomerate within 12 months prior to screening and with TNSS score of >6 at least once during the 2 hour-screening EEC were included. Total 159 patients were included in the study and total 154 patients were considered for efficacy analysis. […]
Primary efficacy endpoint was change in TNSS (Total Nasal Symptom Score) in a 4-hour environmental challenge with Dactylis glomerate pollen in an EEC from baseline to Day 15/16. The TNSS was calculated as summation of 4 point severity scale (0=None, 1=Mild, 2=Moderate and 3=Severe) for each symptom (Nasal congestion, Rhinorrhea, Nasal itching and Sneezing). […]

[4] = tested on: liver glycogen deposition; experiment: Liver glycogen deposition; assay type: in vivo, Male Sprague Dawley rats; conditions: 3 mg/kg intratracheal, 2 doses 24 hrs apart, adrenalectomized rats
croton oil ear edema = experiment: Croton oil ear edema; assay type: in vivo, Mice (male, CD-1); conditions: 1 μg, applied to ear 2 hrs before croton oil
Experimental: Mice (male, CD-1) were made into different groups. A method similar to one reported in the literature was used. Test compounds were dissolved in pyridine-water-acetone (4:2:14) solution 10 μl of this solution of compound or vehicle solution was applied to the left ear of the mice. The right ear of each mouse was applied simultaneously with 10 μl of pyridine: water: acetone (4:2:14) solution. After 2 hrs of compound or vehicle application, 10 μl of croton oil solution was applied to the left ear of all animals. After 6 hr of croton oil treatment the animals were sacrificed; ears were excised and weighed separately.

[5] = tested on: intraocular pressure (IOP); experiment: Effect on intraocular pressure (IOP); assay type: in vivo, rabbits; conditions: 40 μl ophthalmic, 10 instillations daily for 10 days; FIG. 4
Experimental: IOP measurement was performed 1 hr after instillation of the last dose (results are represented in FIG. 4—Effect of ophthalmic steroids on-IOP in rabbits).

[6] = tested on: liver glycogen deposition; experiment: Liver glycogen deposition; assay type: in vivo, Male Sprague Dawley rats; conditions: 3 mg/kg intratracheal, 2 doses 24 hrs apart, adrenalectomized rats; remark: listed apart in the source
Experimental: Male Sprague Dawley rats, weighing 190-220 g were bilaterally adrenalectomized and maintained on 0.9% saline solution throughout the experiment. On day 5th and 6th of adrenalectomy, animals were made into different groups, test compounds prepared in cold saline (sonicated for 30 min) were instilled intratracheally 2 doses @3 mg/kg, 24 hrs apart. At 15 hrs after the last treatment, animals were sacrificed and livers were excised and weighed. The glycogen content of the livers was determined by anthrone method. Briefly, a weighed quantity of liver tissue was homogenized with 5% trichloroacetic acid, supernatant mixed with ethanol and kept overnight for precipitation. The glycogen thus extracted was estimated as glucose generated after acid hydrolysis by addition of anthrone reagent at 620 nm. Glycogen content was expressed as mg/100 g liver.

C[C@@H]1CC2C3C[C@H](F)C4=CC(=O)C=C[C@]4(C)[C@@]3(F)[C@@H](O)C[C@]2(C)[C@@]1(OC(=O)c1ccco1)C(=O)SCC#CCOC(=O)CC(C)(C)F (stereo partly drawn) [Formula I, S-[4-(3-Fluoro-3-methylbutyryloxy)but-2-ynyl]6α,9α-difluoro-17α-(furan-2-yl)carbonyloxy-11β-hydroxy-16α-methyl-3-oxoandrosta-1,4-diene-17β-carbothioate]
inhibition of intranasal pressure [1]: equivalent inhibition | IC50 [2]: 2.3 nM | Ki [2]: 1.24 nM | potency and selectivity towards human glucocorticoid receptor ([2]; compared with aldosterone, estrogen, progesterone and testosterone receptors): good potency and selectivity | primary and secondary efficacy endpoints (change in TNSS, TNSS subscales, nasal secretion) [3]: statistically superior to the placebo | safety profile (treatment-emergent adverse events) [3]: no significant difference in the safety profile | % Inhibition of thymus [4]: 26.15% | Inhibition of ear edema (%) (croton oil ear edema): 75.5% | intraocular pressure (IOP) [5]: insignificant (comparable to placebo) | Glycogen content [6]: 10.68 mg/100 g liver
